Entries after “also recorded” stand apart in the source; their conditions may differ.
Columns and labels:
hNav1.3 = target: T1, hNav1.3 (Homo sapiens, UniProt Q9NY46); test: Two-electrode voltage-clamp recording from Xenopus oocytes expressing hNav1.3 with β1; format: cell-based; details: for effect on hNav1.3 opening / tested gating parameters (in words): 100 μM, vs DMSO control; for hNav1.3 Activation (V1/2) / hNav1.3 Inactivation (V1/2), steady-state inactivation: 100 μM drug, Xenopus oocytes, DMSO 1% or less
T1 construct: host or cells: Xenopus oocytes (cRNA injection)

hNav1.6 = target: T2, hNav1.6 (Homo sapiens, UniProt Q9UQD0); test: Two-electrode voltage-clamp recording from Xenopus oocytes expressing hNav1.6 with β1; format: cell-based; details: for hNav1.6 Activation (V1/2) / hNav1.6 Inactivation (V1/2), steady-state inactivation: 100 μM drug, Xenopus oocytes, DMSO 1% or less
T2 construct: host or cells: Xenopus oocytes (cRNA injection)

hNav1.2 = target: T3, hNav1.2 (Homo sapiens, UniProt Q99250); test: Two-electrode voltage-clamp recording from Xenopus oocytes expressing hNav1.2 with β1; format: cell-based; details: for effect on hNav1.2 opening / tested gating parameters (in words): 100 μM, vs DMSO control; for hNav1.2 Activation (V1/2) / hNav1.2 Inactivation (V1/2), steady-state inactivation: 100 μM drug, Xenopus oocytes, DMSO 1% or less
T3 construct: host or cells: Xenopus oocytes (cRNA injection)

hNav1.1 = target: T4, hNav1.1 (Homo sapiens, UniProt P35498); test: Two-electrode voltage-clamp recording from Xenopus oocytes expressing hNav1.1 with β1; format: cell-based; details: for effect on hNav1.1 opening / gating (in words): G/Gmax vs DMSO control; for hNav1.1 Inactivation (V1/2), steady-state inactivation / hNav1.1 Activation (V1/2): 100 μM drug, Xenopus oocytes, DMSO 1% or less; for hNav1.1 Activation (V1/2): at least one hour incubation, ** = p<0.005 vs DMSO; for effect on hNav1.1 persistent current (in words): end of a 50 ms test pulse; for depolarizing shift in hNav1.1 channel activation voltage: vs DMSO control
T4 construct: host or cells: Xenopus oocytes (cRNA injection)

α1/β2/γ2 GABAA receptor = target: T5, α1/β2/γ2 GABAA receptor (Homo sapiens, UniProt P14867+P18507+P47870); test: GABAA receptor activation in oocytes held at −70 mV; format: cell-based; details: 100 μM; 5 μM muscimol as activator control
T5 construct: expressed in transfected cells; host or cells: oocytes (heterologous expression inferred)
T5 sequence (P14867 28-456): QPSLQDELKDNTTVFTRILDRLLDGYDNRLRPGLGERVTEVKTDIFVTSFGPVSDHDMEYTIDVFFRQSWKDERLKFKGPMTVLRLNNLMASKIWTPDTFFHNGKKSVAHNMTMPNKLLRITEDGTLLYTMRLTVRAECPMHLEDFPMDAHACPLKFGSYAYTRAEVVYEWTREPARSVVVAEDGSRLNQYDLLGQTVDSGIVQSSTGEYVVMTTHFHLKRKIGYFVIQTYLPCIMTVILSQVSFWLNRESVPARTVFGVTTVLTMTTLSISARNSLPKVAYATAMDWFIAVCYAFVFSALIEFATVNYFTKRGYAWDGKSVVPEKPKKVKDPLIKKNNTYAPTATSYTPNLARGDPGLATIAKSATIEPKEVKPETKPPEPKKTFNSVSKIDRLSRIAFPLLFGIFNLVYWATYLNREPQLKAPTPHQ
T5 sequence (P47870 25-512 limits assumed): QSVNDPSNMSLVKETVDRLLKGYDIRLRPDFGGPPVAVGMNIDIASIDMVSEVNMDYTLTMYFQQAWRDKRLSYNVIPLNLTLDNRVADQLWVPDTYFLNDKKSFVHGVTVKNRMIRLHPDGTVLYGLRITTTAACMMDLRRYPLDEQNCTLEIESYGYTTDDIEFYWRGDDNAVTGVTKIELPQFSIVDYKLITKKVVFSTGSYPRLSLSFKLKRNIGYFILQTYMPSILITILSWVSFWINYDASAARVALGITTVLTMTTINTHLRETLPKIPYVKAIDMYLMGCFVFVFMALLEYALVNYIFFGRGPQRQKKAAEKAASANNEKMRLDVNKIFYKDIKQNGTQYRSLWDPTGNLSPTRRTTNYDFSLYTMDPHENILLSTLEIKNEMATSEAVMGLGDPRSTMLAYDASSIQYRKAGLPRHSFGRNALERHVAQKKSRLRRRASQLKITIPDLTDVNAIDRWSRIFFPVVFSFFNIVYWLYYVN
T5 sequence (P18507 40-475): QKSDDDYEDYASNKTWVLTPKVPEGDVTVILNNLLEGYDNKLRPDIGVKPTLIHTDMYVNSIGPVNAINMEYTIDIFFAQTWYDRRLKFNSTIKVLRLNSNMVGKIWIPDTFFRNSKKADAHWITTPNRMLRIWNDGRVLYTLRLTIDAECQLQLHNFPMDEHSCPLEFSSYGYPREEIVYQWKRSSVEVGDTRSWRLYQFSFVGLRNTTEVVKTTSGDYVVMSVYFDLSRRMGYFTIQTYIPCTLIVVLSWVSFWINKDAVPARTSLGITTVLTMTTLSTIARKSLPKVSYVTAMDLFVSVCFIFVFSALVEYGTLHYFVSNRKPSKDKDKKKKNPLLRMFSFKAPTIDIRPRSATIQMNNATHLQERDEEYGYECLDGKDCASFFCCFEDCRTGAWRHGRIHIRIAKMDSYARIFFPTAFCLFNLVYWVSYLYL
Text: Oocytes were kept at −70 mV throughout the experiment.

[1] = test system: picrotoxin-induced generalized seizures in male Cr1:CF1 mice; test: Picrotoxin seizure induction; format: in vivo
Description: (§1) Animal husbandry and drug administration. Male Cr1:CF1 mice (10-12 weeks old, Charles River) were housed under a 12 hour light-dark cycle with free access to food and water and all experiments were carried out between 10 am and 4 pm. 1-[phenyl-methyl]-1H-1,2,3-triazole-4-carboxamide-5-methyl (Compound B) (Sigma Aldrich) was suspended in a 40% solution of cyclodextrin (Sigma Aldrich) in sterile saline (0.9%) and 15 minutes prior to each seizure induction paradigm, 75 mg/kg of compound B was administered via intraperitoneal injection (ip) injection. Vehicle treated animals were similarly administrated 40% cyclodextrin and served as the controls for each experiment. The Emory University Institutional Animal Care and Use Committee approved all experimental protocols involving mice.
Seizure induction paradigms and analyses. Picrotoxin seizure induction—15 minutes prior to i.p. injection of picrotoxin (10 mg/kg, Sigma Aldrich), mice were administered vehicle or compound B (n=12 per group). Latencies to the first myoclonic jerk, forelimb clonus, and generalized tonic-clonic seizure were compared between compound B and vehicle-treated mice. The myoclonic jerk is characterized by a sudden jerk of the upper body whereas forelimb clonus involves rapid movement of the forelimbs for at least 5s. Finally, the generalized tonic-clonic seizure involves the loss of postural control with rapid movement of the limbs for at least 5s.
Statistical analysis. A Student's t-test was used to identify statistically significant differences in latencies between vehicle- and compound B-treated groups for each seizure phenotype following administration of flurothyl and picrotoxin. […] All data are presented as the mean±s.e.m.; p values <0.05 were considered significant.

[2] = test system: flurothyl-induced generalized seizures in male Cr1:CF1 mice; test: Flurothyl seizure induction; format: in vivo; details: 75 mg/kg ip, vs vehicle, p=0.6
Description: as §1
Flurothyl Seizure induction. Latencies to flurothyl-induced seizures were determined as previously described (Neurobiol Dis 49C, 211-220 (2012)). Briefly, flurothyl (2,2,2-trifluroethylether; Sigma Aldrich) was dispensed at a rate of 20 μl/minute into a Plexiglas chamber and latencies to three behavioral phenotypes were compared between vehicle-treated and compound B-treated (75 mg/kg) mice (n=12 per group): 1) the first myoclonic jerk, 2) a generalized tonic-clonic seizure, and 3) a generalized tonic-clonic seizure with tonic extension. […]

[3] = test system: 6 Hz (17 mA) induced partial seizures in male Cr1:CF1 mice; test: 6 Hz psychomotor seizure induction; format: in vivo; details: 75 mg/kg ip, p<0.0001
Description: as §1
6 Hz psychomotor seizure induction. Topical anesthetic (0.5% tetracaine hydrochloride ophthalmic solution) was applied to the cornea 30 minutes before testing. Fifteen minutes prior to seizure induction, mice were administrated vehicle or compound B (n=12 per group). Each mouse was manually restrained and corneal stimulation (0.2 ms pulse, 6 Hz, 3s) was performed at a current intensity of 17 mA (ECT Unit 57800; Ugo Basile, Comerio Italy). […]

Solubility of rufinamide = format: physicochemical
[4] = 75 mg/kg ip 15 minutes prior to picrotoxin 10 mg/kg, vs vehicle

Molecule | effect on hNav1.3 opening / tested gating parameters (in words) (hNav1.3) | effect on hNav1.2 opening / tested gating parameters (in words) (hNav1.2) | effect on hNav1.1 opening / gating (in words) (hNav1.1; 100 μM) | hNav1.1 Inactivation (V1/2), steady-state inactivation (hNav1.1) | hNav1.1 Activation (V1/2) (hNav1.1) | effect on hNav1.1 persistent current (in words) (hNav1.1; 100 μM) | effect on hNav1.6 opening / tested gating parameters (in words) (hNav1.6; 100 μM, vs DMSO control) | other results
1-[(2,6-difluorophenyl)methyl]-1H-1,2,3-triazole-carboxymethyl-5-methyl [Compound L] | not significant | not significant | only slightly inhibits hNav1.1 opening |  |  |  |  | effect on hNav1.6 steady-state inactivation (in words) (hNav1.6; 100 μM): dramatically affect hNav1.6 steady-state inactivation
NC(=O)c1nnn(Cc2cccc(F)c2)c1N [Compound A, 1-[(3-fluorophenyl)methyl]-1H-1,2,3-Triazole-4-carboxamide-5-amine] |  |  | clearly inhibit hNav1.1 opening | −50.5 ± 1.2 mV | −30.8 ± 1.0 mV | neither of these compounds influences |  | 
Cc1c(C(N)=O)nnn1Cc1ccccc1 [Compound B, 1-[phenyl-methyl]-1H-1,2,3-Triazole-4-carboxamide-5-methyl] | unaltered | unaltered | more efficaciously when compared to rufinamide; also recorded: clearly inhibit hNav1.1 opening | −49.4 ± 0.3 mV | −27.4 ± 1.0 mV | do not affect persistent current | unaltered | activation of the α1/β2/γ2 GABAA receptor (in words) (α1/β2/γ2 GABAA receptor): do not activate; also recorded: do not evoke inward GABAA-mediated currents; hNav1.3 Activation (V1/2) (hNav1.3): −25.8 ± 1.4 mV; hNav1.3 Inactivation (V1/2), steady-state inactivation (hNav1.3): −50.0 ± 0.8 mV; hNav1.6 Activation (V1/2) (hNav1.6): −23.8 ± 1.9 mV; hNav1.6 Inactivation (V1/2), steady-state inactivation (hNav1.6): −62.6 ± 0.7 mV; frequency of the behavioral seizures vs vehicle, picrotoxin ([1]; 75 mg/kg ip): no difference; average latency to forelimb clonus (FC), picrotoxin [1, 4]: no statistically significant differences; average latency to the first myoclonic jerk (MJ), picrotoxin [1, 4]: no statistically significant differences; hNav1.2 Activation (V1/2) (hNav1.2): −23.6 ± 1.1 mV; hNav1.2 Inactivation (V1/2), steady-state inactivation (hNav1.2): −53.6 ± 1.2 mV; average latency to the MJ, flurothyl [2]: comparable; effect on entry or voltage-dependence of hNav1.1 slow inactivation (in words) (hNav1.1): do not influence; depolarizing shift in hNav1.1 channel activation voltage (hNav1.1; 100 μM): ~+11 mV; Voltage-dependence of SI (V), V1/2 of hNav1.1 slow inactivation (hNav1.1; oocytes expressing hNav1.1, Boltzmann fit): −43.2 ± 1.3 mV; Entry into SI (T), time constant of entry into hNav1.1 slow inactivation (hNav1.1; oocytes expressing hNav1.1, single exponential fit): 5.5 ± 0.4 s; severity of seizures vs vehicle (modified Racine scale), 6 Hz [3]: dramatically less severe; also recorded: typically less severe
OCc1cn(Cc2cccc(F)c2)nn1 [Compound C, 1-[(3-fluorophenyl)methyl]-1H-1,2,3-Triazole-4-hydroxymethyl] |  |  | does not influence hNav1.1 gating; also recorded: no longer affects hNav1.1 opening | −49.2 ± 0.6 mV | −38.4 ± 1.3 mV |  |  | 
NC(=O)c1nnn(Cc2ccc(F)cc2)c1N [Compound D, 1-[(4-fluorophenyl)methyl]-1H-1,2,3-Triazole-4-carboxamide-5-amine] |  |  | not significant | −49.8 ± 1.6 mV | −32.5 ± 2.3 mV |  |  | 
CCc1c(C(N)=O)nnn1Cc1ccccc1 [Compound F, 1-(phenylmethyl)-1H-1,2,3-triazole-4-carboxamide-5-ethyl] | not significant | not significant | inhibits hNav1.1 opening |  |  | does not influence | not significant | effect on hNav1.1 steady-state inactivation (in words) (hNav1.1; 100 μM): does not influence; depolarizing shift in hNav1.1 channel activation voltage (hNav1.1; 100 μM): ~+12 mV
COC(=O)c1nnn(Cc2c(F)cccc2F)c1C [Compound L, 1-[(2,6-difluorophenyl)methyl]-1H-1,2,3-triazole-carboxymethyl-5-methyl] |  |  | much smaller compared to compound B |  |  |  |  | shift of midpoint of hNav1.6 channel availability (steady-state inactivation) (hNav1.6; 100 μM, vs DMSO control): ~−20 mV
NC(=O)c1cn(Cc2c(F)cccc2F)nn1 [Rufinamide, 1-[(2,6-difluorophenyl)methyl]-1H-1,2,3-Triazole-4-carboxamide, reference compound] | not inhibited | not inhibited | dramatic depolarizing shift; also recorded: inhibits hNav1.1 opening | −47.8 ± 1.6 mV | −30.6 ± 0.9 mV | do not affect persistent current | not inhibited; also recorded: not significant | activation of the α1/β2/γ2 GABAA receptor (in words) (α1/β2/γ2 GABAA receptor): do not activate; also recorded: do not evoke inward GABAA-mediated currents; hNav1.3 Activation (V1/2) (hNav1.3): −24.5 ± 2.4 mV; hNav1.3 Inactivation (V1/2), steady-state inactivation (hNav1.3): −52.6 ± 1.6 mV; hNav1.6 Activation (V1/2) (hNav1.6): −28.1 ± 0.8 mV; hNav1.6 Inactivation (V1/2), steady-state inactivation (hNav1.6): −60.0 ± 0.7 mV; hNav1.2 Activation (V1/2) (hNav1.2): −29.5 ± 1.2 mV; hNav1.2 Inactivation (V1/2), steady-state inactivation (hNav1.2): −57.7 ± 0.5 mV; solubility (Solubility of rufinamide; DMSO, organic solvent or mixture): ≤ 9000 µg/mL; solubility in water (Solubility of rufinamide; water): slightly soluble; effect on entry or voltage-dependence of hNav1.1 slow inactivation (in words) (hNav1.1): do not influence

Reference: patent publication US9771335B2 (THE JOHNS HOPKINS UNIVERSITY, priority 2015, dated 2017)
